# Test results reported in patent publication US20200222497A1, “USE OF COMPOSITAE-TYPE CYCLIC PEPTIDE COMPOUND AS CGAS-STING SIGNALLING PATHWAY INHIBITOR” (CHINA PHARMACEUTICAL UNIVERSITY, priority 2017, published 2020).
# Tested on: HSV-1 induced IFNβ protein in mouse serum
# Assay: IFNβ protein in serum of HSV-1 infected mice (ELISA)
# Assay type: in vivo
# Details: wild mouse, compound by tail vein injection three times, HSV-1 by tail vein, serum collected in 6 hours, FIG. 3
# Text: Influence of the compositae type cyclopeptide compound Astin C (3) prepared in example 1 on expression of IFNβ protein in HSV-1 induced mouse serum.
# The experimental principle: Expression of the IFNβ protein in the body is a mark event of innate immunity resisting infection reaction, the expressed IFNβ can activate the signal transduction channel of the interferon receptor (IFNR) to induce expression of cell factors and inflammatory factors such as interferon stimulated genes, and finally, the invading pathogenic microorganisms are eliminated by recruiting NK cells or further activating molecular mechanisms such as adaptive immune response. Therefore, after the DNA virus HSV-1 infects a mouse, the activating condition of the innate anti-infection immune response of the body can be reflected by detecting the expression quantity of IFN-β of mouse serum, so that influence of the compound on the innate anti-infection immune reaction of the body is evaluated.
# The experimental method: (1) Establishment of an HSV-1 infected mouse model: A 6-8 week old wild mouse was taken; 100 μL of HSV-1, the titer of which is 1×10^7, was injected into a mouse body by way of tail vein injection; and serum was collected in 6 hours for a follow-up experiment. […]
smiles,measurement,value
CCC1NC(=O)C2C(Cl)C(Cl)CN2C(=O)C(CC)NC(=O)CC(c2ccccc2)NC(=O)C(CO)NC1=O (stereo not shown) [Astin C],HSV-1 induced IFNβ content in the mouse serum,reduce the HSV-1 induced IFNβ content in the mouse serum obviously
